Here are results for 12 compounds from ChEMBL document CHEMBL4184201, “Inhibition of protein tyrosine phosphatase 1B (PTP1B) and α-glucosidase by xanthones from Cratoxylum cochinchinense, and their kinetic characterization” (Bioorg Med Chem, 2018).

The source made the active and inactive calls. No cut-off for these calls is given here.

For test [1], the target named is T1, Alpha glucosidase (Homo sapiens, UniProt O43451+P10253+P14410+Q2M2H8). Briefly: Inhibition of alpha-glucosidase (unknown origin) using PNP-G as substrate by Dixon plot analysis. Type of test: protein assay.
In test [2] the target is T1, Alpha glucosidase. Briefly: Mixed type inhibition of alpha-glucosidase (unknown origin) using PNP-G as substrate by Lineweaver-Burk plot analysis. Type of test: protein assay.
In test [3] the target is T1, Alpha glucosidase. Briefly: Inhibition of alpha-glucosidase (unknown origin) using PNP-G as substrate measured for 15 mins by spectrophotometry. The test is classed as protein assay.
Test [4] addresses T2, Tyrosine-protein phosphatase non-receptor type 1 (Homo sapiens, UniProt P18031).
T2 sequence (P18031 whole entry): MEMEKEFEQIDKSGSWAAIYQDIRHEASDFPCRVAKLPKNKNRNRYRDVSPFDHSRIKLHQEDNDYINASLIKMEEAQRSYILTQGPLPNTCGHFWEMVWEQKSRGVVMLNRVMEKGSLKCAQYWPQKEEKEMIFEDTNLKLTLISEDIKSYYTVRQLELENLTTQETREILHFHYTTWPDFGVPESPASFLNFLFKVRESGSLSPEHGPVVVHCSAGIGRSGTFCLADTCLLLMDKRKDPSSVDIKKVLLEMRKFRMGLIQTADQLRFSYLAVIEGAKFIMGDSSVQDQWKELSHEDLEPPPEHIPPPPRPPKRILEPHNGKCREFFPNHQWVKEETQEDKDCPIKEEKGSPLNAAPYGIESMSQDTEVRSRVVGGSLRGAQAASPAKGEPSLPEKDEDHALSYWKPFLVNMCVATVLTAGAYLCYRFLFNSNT
The test can be described thus: Inhibition of recombinant human PTP1B (1 to 322 residues) expressed in Escherichia coli using P-NPP as substrate after 10 mins by spectrophotometry.

Test [5] has as its target T3, Tyrosine-protein phosphatase non-receptor type 1 (Homo sapiens) (UniProt P18031).
T3 sequence (whole entry): T2 sequence (P18031 whole entry)
The test can be described thus: Competitive inhibition of recombinant human PTP1B (1 to 322 residues) expressed in Escherichia coli using P-NPP as substrate after 10 mins by Lineweaver-Burk plot analysis.

Test [6] has as its target T2, Tyrosine-protein phosphatase non-receptor type 1. The test can be described thus: Inhibition of recombinant human PTP1B (1 to 322 residues) expressed in Escherichia coli using P-NPP as substrate after 10 mins by Dixon plot analysis.
Test [7] concerns the target T3, Tyrosine-protein phosphatase non-receptor type 1 (Homo sapiens). Briefly: Inhibition of recombinant human PTP1B (1 to 322 residues) expressed in Escherichia coli assessed as forward rate constant for enzyme-inhibitor bound conformation using P-NPP as substrate incubated with enzyme for 30 mins by UV-spectrophotometric method.
Test [8] shares this target. The test can be described thus: Reversible inhibition of recombinant human PTP1B (1 to 322 residues) expressed in Escherichia coli using P-NPP as substrate after 10 mins by spectrophotometry.
In test [9] the target is T1, Alpha glucosidase. Briefly: Mixed type inhibition of alpha-glucosidase (unknown origin) assessed as enzyme-substrate-inhibitor complex formation using PNP-G as substrate by Lineweaver-Burk plot analysis. Type of test: protein assay.
In test [10] the target is T2, Tyrosine-protein phosphatase non-receptor type 1. Briefly: Time dependent inhibition of recombinant human PTP1B (1 to 322 residues) expressed in Escherichia coli using P-NPP as substrate preincubated with enzyme for 30 mins by UV-spectrophotometric method. The settings on record: read-out: Ki(app).
The target in test [11] is T1, Alpha glucosidase. The test can be described thus: Reversible inhibition of alpha-glucosidase (unknown origin) using PNP-G as substrate measured for 15 mins by spectrophotometry. The test is classed as protein assay.

With `CC(C)=CCC/C(C)=C/COc1ccc2oc3cc(O)cc(O)c3c(=O)c2c1`, the results for the Ki (on Alpha glucosidase [1]; in test [6]) were 17.7 µM and 19.9 µM, respectively. Besides, the “Mixed-type inhibition (qualitative)” value on Alpha glucosidase [2] is “Active”. In addition, the IC50 (commonly the concentration needed to halve the response being measured) was 20.6 µM against Alpha glucosidase [3] and 35.1 µM in test [4]. Moreover, the “inhibition type (Lineweaver-Burk)” value in test [5] is “Active”.
As for `C=C(CCC=C(C)C)C(O)Cc1c(O)c(CC=C(C)C)c(O)c2c(=O)c3cc(O)ccc3oc12` (configuration not stated), the results for the Ki (at Alpha glucosidase [1]; in test [6]) were 8.2 µM and 8.9 µM, respectively. Besides, the “Mixed-type inhibition (qualitative)” value at Alpha glucosidase [2] is “Active”. Also, the IC50 against Alpha glucosidase [3] came to 10.1 µM; in test [4], 12.5 µM. Further, the “inhibition type (Lineweaver-Burk)” value in test [5] is “Active”.
Regarding `COc1c(O)ccc2c(=O)c3c(O)cc4c(c3oc12)C(C)(C)C(CO)O4` (configuration not stated), the Ki came out at 33.9 µM at Alpha glucosidase [1] and 32.7 µM in test [6]. Also, the “Mixed-type inhibition (qualitative)” value at Alpha glucosidase [2] was “Active”. In addition, the 50% inhibitory concentration (IC50) at Alpha glucosidase [3] was 72.7 µM; in [4] it was 52.5 µM. Besides, the “inhibition type (Lineweaver-Burk)” value in test [5] is “Active”.
Turning to `C=C(C)C(O)Cc1c(O)c(C/C=C(\C)CCC=C(C)C)c2oc3ccc(O)cc3c(=O)c2c1O` (configuration not stated), the Ki is 4.2 µM at Alpha glucosidase [1], 6.6 µM at Alpha glucosidase [9], 2.4 µM in [10] and 2.1 to 2.4 µM in test [6]. Further, the K in [7] turned out to be 50000 M⁻¹ s⁻¹. On Alpha glucosidase [2], the “Mixed-type inhibition (qualitative)” value is “Active”. Besides, the inhibition entry (in test [8]; at Alpha glucosidase [11]) was “Active” each time. For the same compound, the IC50 on Alpha glucosidase [3] was 4.8 µM; in test [4] it was 2.4 µM. For the same compound, the “inhibition type (Lineweaver-Burk)” value in test [5] is “Active”.
As for `CC(C)=CCc1c(O)cc2oc3cc(O)c(O)c(CC=C(C)C)c3c(=O)c2c1O`, the Ki on Alpha glucosidase [1] stood at 1.4 µM; in test [6], 2.7 µM. Further, the inhibition entry on Alpha glucosidase [2] is “Active”. Besides, the IC50 at Alpha glucosidase [3] turned out to be 1.7 µM; in test [4], 2.8 µM. The “inhibition type (Lineweaver-Burk)” value in [5] was “Active”.
On to `COc1c(O)cc2oc3cc(O)c(CCC(C)(C)O)c(O)c3c(=O)c2c1CC=C(C)C`, for which the results for the Ki (on Alpha glucosidase [1]; in test [6]) were 25.1 µM and 22.9 µM, respectively. Further, the “Mixed-type inhibition (qualitative)” value at Alpha glucosidase [2] was “Active”. In addition, the IC50 against Alpha glucosidase [3] was found to be 30.7 µM; in [4] it was 24.1 µM. Moreover, the “inhibition type (Lineweaver-Burk)” value in test [5] was “Active”.
With `COc1c(O)cc2oc3cc(O)c(CC=C(C)C)c(O)c3c(=O)c2c1CC=C(C)C` [MANGOSTIN], the Ki on Alpha glucosidase [1] worked out at 7.3 µM; in test [6] it was 3.2 µM. Also, on Alpha glucosidase [2], the “Mixed-type inhibition (qualitative)” value was “Active”. The results for the IC50 (at Alpha glucosidase [3]; in test [4]) were 5.7 µM and 5.5 µM, respectively. In addition, in test [5], the “inhibition type (Lineweaver-Burk)” value is “Active”.
Consider `CC(C)=CCC/C(C)=C/Cc1c(O)c(CC=C(C)C)c(O)c2c(=O)c3cc(O)ccc3oc12` [COCHINCHINONE A], for which the Ki at Alpha glucosidase [1] came to 13.4 µM; in test [6], 3.1 µM. In addition, the “Mixed-type inhibition (qualitative)” value at Alpha glucosidase [2] was “Active”. The IC50 against Alpha glucosidase [3] was 17.4 µM; in [4] it was 5.2 µM. In addition, in [5], the “inhibition type (Lineweaver-Burk)” value is “Active”.
For the compound `CC(C)=CCC/C(C)=C/COc1cc2oc3ccc(O)cc3c(=O)c2c(O)c1CC=C(C)C`, the Ki stood at 27.2 µM at Alpha glucosidase [1] and 5.1 µM in test [6]. Besides, the “Mixed-type inhibition (qualitative)” value at Alpha glucosidase [2] was “Active”. Also, the IC50 at Alpha glucosidase [3] was found to be 28.4 µM; in test [4] it was 7.05 µM. Moreover, the “inhibition type (Lineweaver-Burk)” value in test [5] was “Active”.
Regarding `CC(C)=CCCC(C)(O)C1Cc2c(c(CC=C(C)C)c(O)c3c(=O)c4cc(O)ccc4oc23)O1` (configuration not stated), the Ki came out at 9.9 µM at Alpha glucosidase [1] and 3.4 µM in test [6]. The “Mixed-type inhibition (qualitative)” value on Alpha glucosidase [2] is “Active”. The half-inhibitory concentration (IC50) is 16.1 µM at Alpha glucosidase [3] and 7.2 µM in test [4]. Besides, the “inhibition type (Lineweaver-Burk)” value in test [5] is “Active”.
For `CC(C)=CCc1c(O)c(CC=C(C)C)c2oc3ccc(O)cc3c(=O)c2c1O`, the Ki was determined as 19.2 µM at Alpha glucosidase [1] and 11.1 µM in test [6]. Further, on Alpha glucosidase [2], the “Mixed-type inhibition (qualitative)” value is “Active”. Moreover, the IC50 turned out to be 25.5 µM at Alpha glucosidase [3] and 10.5 µM in test [4]. Besides, the “inhibition type (Lineweaver-Burk)” value in test [5] is “Active”.
Regarding `C=C(C)C(O)CC/C(C)=C/COc1ccc2oc3cc(O)cc(O)c3c(=O)c2c1` (configuration not stated), the figures for the Ki (on Alpha glucosidase [1]; in test [6]) were 13 µM and 29.5 µM, respectively. Also, at Alpha glucosidase [2], the “Mixed-type inhibition (qualitative)” value was “Active”. Moreover, the half-inhibitory concentration (IC50) against Alpha glucosidase [3] was determined as 13.7 µM; in test [4] it was 25.2 µM. For the same compound, in test [5], the “inhibition type (Lineweaver-Burk)” value is “Active”.
